From patent US20050124674A1, “Synergistic biocide composition” (priority 1998, published 2005)

What was measured:
Experiment in all cases: MIC / synergy test of MIT and IPBC mixtures in Sabouraud maltose broth
Assay type in all cases: cell-based
Penicillium funiculosum = settings: for MIC at IPBC concentration Qb: IPBC part of the MIC pair; for MIC value: biocide used alone; for Synergy index Qa/QA + Qb/QB: method of Kull et al.; for MIC at MIT concentration Qa: MIT part of the MIC pair
Protocol: (§1) The calculation of the synergy index is performed according to the method by F. C. Kull et al., Applied Microbiology, vol. 9 (1961), p. 538. The synergy index is calculated here using the following formula: Synergy index SI=Qa/QA+Qb/QB.
(§2) When this formula is used for the biocide system tested here, the variables in the formula have the following meaning: • […]=Concentration of MIT in biocide mixture of MIT and IPBC • QA=Concentration of MIT as the only biocide • Qb=Concentration of IPBC in biocide mixture of MIT and IPBC • QB=Concentration of IPBC as the only biocide
(§3) When the synergy index has a value of less than 1, that means that a synergy of the two biocides exists.
The test arrangement again included a Sabouraud maltose broth as culture medium. The cell density was 10^6 germs/ml. The incubation time was 72 hours at 25° C. Every sample was incubated at 120 r.p.m. on an incubation shaker.
Example 5 was repeated with the change that the incubation time was 96 hours instead of 72 hours.

Aspergillus niger = settings: 96 hours; for MIC value: biocide used alone; for Synergy index Qa/QA + Qb/QB: method of Kull et al.
Protocol: as §1, §2, §3
(§4) The test arrangements again included a Sabouraud maltose broth as culture medium. The cell density was 10^6 cells/ml. The incubation time was 96 hours at 25° C. Every sample was incubated at 120 r.p.m. on an incubation shaker.

Candida valida = settings: 96 hours; for MIC value: biocide used alone; for Synergy index Qa/QA + Qb/QB: method of Kull et al.
Protocol: as §1, §2, §3, §4

Saccharomyces cerevisiae = settings: for MIC at IPBC concentration Qb: IPBC part of the MIC pair; for MIC value: biocide used alone; for Synergy index Qa/QA + Qb/QB: method of Kull et al.; for MIC at MIT concentration Qa: MIT part of the MIC pair
Protocol: For that purpose, aqueous mixtures with different concentrations of 2-methylisothiazolin-3-one (MIT) and 3-iodo-2-propynyl-N-butylcarbamate (IPBC) were produced and the effects of those mixtures on Saccharomyces cerevisiae were tested.
In addition to the biocide components and water, the aqueous mixtures also contained a nutrient medium, specifically a Sabouraud maltose broth (trade product “Merck No. 10393”). The cell density of Saccharomyces cerevisiae was 10^6 cells/ml. The incubation time was 72 hours at 25° C. Each sample was incubated at 120 r.p.m. on an incubation shaker.
as §1, §2, §3
Example 1 was repeated with the change that the incubation time was 96 hours instead of 72 hours.

Row | Structure (SMILES) | MIC value (Penicillium funiculosum; 72 hours) | Synergy index Qa/QA + Qb/QB (Penicillium funiculosum; 72 hours) | MIC value (Penicillium funiculosum; 96 hours) | Synergy index Qa/QA + Qb/QB (Penicillium funiculosum; 96 hours) | MIC value (Aspergillus niger) | Synergy index Qa/QA + Qb/QB (Aspergillus niger) | MIC value (Candida valida) | Synergy index Qa/QA + Qb/QB (Candida valida) | MIC value (Saccharomyces cerevisiae; 72 hours) | Synergy index Qa/QA + Qb/QB (Saccharomyces cerevisiae; 72 hours) | MIC value (Saccharomyces cerevisiae; 96 hours) | Synergy index Qa/QA + Qb/QB (Saccharomyces cerevisiae; 96 hours) | other results
1 | CCCCNC(=O)OCC#CI [IPBC, 3-iodo-2-propynyl-N-butylcarbamate] | 1.5 ppm | 1.00 | 1.5 ppm | 1.00 | 5 ppm | 1.00 | 2.5 ppm | 1.00 | 10 ppm | 1.00 | 10 ppm | 1.00 | MIC at IPBC concentration Qb (Penicillium funiculosum; 72 hours): 1.5 ppm; MIC at IPBC concentration Qb (Penicillium funiculosum; 96 hours): 1.5 ppm; MIC at IPBC concentration Qb (Aspergillus niger; IPBC part of the MIC pair): 5 ppm; MIC at IPBC concentration Qb (Candida valida; IPBC part of the MIC pair): 2.5 ppm; MIC at IPBC concentration Qb (Saccharomyces cerevisiae; 72 hours): 10 ppm; MIC at IPBC concentration Qb (Saccharomyces cerevisiae; 96 hours): 10 ppm
2 | Cn1sccc1=O [MIT, 2-methylisothiazolin-3-one] | 200 ppm | 1.00 | 200 ppm | 1.00 | 750 ppm | 1.00 | 75 ppm | 1.00 | 150 ppm | 1.00 | 150 ppm | 1.00 | MIC at MIT concentration Qa (Penicillium funiculosum; 72 hours): 200 ppm; MIC at MIT concentration Qa (Penicillium funiculosum; 96 hours): 200 ppm; MIC at MIT concentration Qa (Aspergillus niger; MIT part of the MIC pair): 750 ppm; MIC at MIT concentration Qa (Candida valida; MIT part of the MIC pair): 75 ppm; MIC at MIT concentration Qa (Saccharomyces cerevisiae; 72 hours): 150 ppm; MIC at MIT concentration Qa (Saccharomyces cerevisiae; 96 hours): 150 ppm
